Results on 17 compounds are retold here after PubChem BioAssay (NCI).

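Compound exposure: 48 hours, 5 concentrations, 96-well plates. GI50 marks 50% less growth. TGI: total growth inhibition.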

Holding throughout (assay): growth of human tumour cells (NCI), 48 h
Test [1] relates to RXF 393 renal.
Test [2] deals with EKVX NSCLC.
Test [3] has as its system HOP-62 NSCLC.
Test [4] concerns HT29 colon.
The test system of test [5] is HCT-116 colon.
In test [6] the test system is SNB-75 CNS.
Test [7] relates to SF-268 CNS.
The subject of test [8] is A498 renal.

Regarding `NNC(=O)N/N=C1\CNC(=O)C(=O)C1c1nc2ccccc2s1` (stereo not given), the TGI in test [1], in test [2], in test [3], in test [4], in test [5] and in test [6] was over 100 µM throughout. The TGI in test [7] and in test [8] was over 100 µM each time.

In the case of `Cc1c(C)c2ccc(OC(C)C(=O)O)cc2oc1=O` (stereo not given), the TGI in test [1], in test [2], in test [3], in test [4], in test [5] and in test [6] was over 100 µM in each case. Moreover, the TGI in test [7] and in test [8] was over 100 µM each time.

As for `C/C(CC(=O)Nc1cccc(Cl)c1C)=N\N=C(N)N`, the TGI in test [1], in test [2], in test [3], in test [4], in test [5] and in test [6] was over 100 µM throughout. Moreover, the TGI in test [7] and in test [8] was over 100 µM each time.

Take `CC(C)=CC(=O)CC(=O)C(=O)NCCNC(=O)C(=O)CC(=O)C=C(C)C`: the TGI in test [1], in test [2], in test [3], in test [4], in test [5] and in test [6] was over 50 µM each time. Moreover, the TGI in test [7] and in test [8] was over 50 µM each time.

As for `CCOc1ccc(/C=C2/C(=O)N=C(N)N=C2N)cc1OCC`, the TGI in test [1], in test [2], in test [4], in test [5] and in test [6] was over 100 µM in each case.

Take `O=c1[nH]c(=O)n(C2CC(O)C(O)C(CO)O2)cc1F` (stereo not given): the TGI in test [1], in test [2], in test [3], in test [4], in test [5] and in test [6] was over 100 µM in each case. Also, the TGI in test [7] and in test [8] was over 100 µM in each case.

With `O=C(Nc1ccc(Cl)c(Cl)c1)C1C(=O)N(c2ccc(Cl)c(Cl)c2)C(=O)/C1=N\O` (stereo not given), the TGI in test [2], in test [3], in test [4], in test [5], in test [6] and in test [7] was over 100 µM each time. The TGI in test [8] is over 100 µM.

Take `C1=C(c2ccccc2)C(OC2Oc3ccccc3C=C2c2ccccc2)Oc2ccccc21` (stereo not given): the TGI in test [1], in test [2], in test [3], in test [4], in test [5] and in test [6] was over 100 µM each time. Also, the TGI in test [7] and in test [8] was over 100 µM each time.

As to `CC1(C)OC2OC(COC(=O)C(c3ccccc3)c3ccccc3)C3OC(C)(C)OC3C2O1` (stereo not given), the TGI was over 100 µM in test [1]; over 100 µM in test [2]; over 100 µM in test [3]; over 100 µM in test [4]; 87.2 µM in test [6]; over 100 µM in test [7]. The same compound registered a TGI in test [8] of over 100 µM. Moreover, the GI50 in test [2], in test [3] and in test [8] was over 100 µM each time.

As to `O=C(CCC(=O)C1Cc2ccccc2C1=O)Nc1cccc(C(F)(F)F)c1` (stereo not given), the TGI in test [1], in test [2], in test [3], in test [4], in test [5] and in test [7] was over 100 µM throughout.

For `Cn1cc(NC(=O)c2cc(NC(=O)CCCCCCCC(=O)Nc3cc(C(=O)Nc4cc(C(=O)NCCC(=N)N)n(C)c4)n(C)c3)cn2C)cc1C(=O)NCCC(=N)N`, the TGI was 41.3 µM in test [1]; 68.2 µM in test [2]; over 100 µM in test [3]; over 100 µM in test [4]; 42.3 µM in test [5]; 70.8 µM in test [6]. Moreover, the TGI in test [7] was found to be 45.9 µM; in test [8], 56.7 µM.

Turning to `C1CCN2CC3CONC3C2C1` (stereo not given), the TGI in test [1], in test [2], in test [3], in test [4], in test [5] and in test [6] was over 100 µM throughout. Also, the TGI in test [7] and in test [8] was over 100 µM throughout.

Regarding `Nc1c(-c2nc3ccccc3s2)[n+]([O-])c2ccccc2[n+]1[O-]`, the TGI in test [2] was over 100 µM; in test [3] it was 78.5 µM; in test [4] it was over 100 µM; in test [5], 63.9 µM; in test [6] it was 76.5 µM; in test [7], 82.2 µM. The compound further yielded a TGI in test [8] of over 100 µM.

In the case of `O=C1c2ccoc2C(=O)c2oc(=O)ccc21`, the TGI in test [1] was 15.1 µM; in test [2], 35.2 µM; in test [3] it was over 61.1 µM; in test [4], over 78.8 µM; in test [5] it was 10.3 µM; in test [6], 15.6 µM. In addition, the TGI in test [7] is 27.1 µM; in test [8], over 85.9 µM.

On to `Nc1c(C(=O)Nc2ccccc2O)[n+]([O-])c2ccccc2[n+]1[O-]`, for which the TGI in test [2], in test [3], in test [4], in test [5], in test [6] and in test [8] was over 100 µM in each case.

Regarding `O=c1c2cccc3cccc(c4n1CCCN=4)c32`, the TGI in test [1], in test [2], in test [3], in test [4], in test [5] and in test [6] was over 100 µM each time. The TGI in test [7] and in test [8] was over 100 µM throughout.

Take `Nc1ncnc2sc(Nc3ccccc3)nc12`: the TGI in test [3], in test [4], in test [6] and in test [7] was over 100 µM throughout.
